In patent US20240262812A1, “N-SUBSTITUTED PHENYLSULFONAMIDE COMPOUND AND USE THEREOF” (Shanghai Leado Pharmatech Co., Ltd., priority 2021, published 2024):

Molecular target: T1, mTRPA1 (Mus musculus, UniProt Q8BLA8)
T1 construct: expressed in transfected cells
Assay: IonWorks Barracuda (IWB) automated patch clamp, TRPA1 inhibitory activity
Format: cell-based
Details: HEK293 cells stably expressing mTRPA1, current induced by AITC, amplitude at +100 mV; read-out: IC50 (inhibition activity on TRPA1)
Summary of the method: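 HEK293 cells stably expressing mouse TRPA1, perforated-patch whole-cell recording (amphotericin B) on IonWorks Barracuda; holding 0 mV, −100 to +100 mV ramp over 300 ms every 10 s. Current evoked by 300 µM AITC, leak-subtracted, amplitude taken at +100 mV; IC50 from fitted dose-effect curves, HC030031 as plate reference.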

T1 sequence (Q8BLA8 whole entry): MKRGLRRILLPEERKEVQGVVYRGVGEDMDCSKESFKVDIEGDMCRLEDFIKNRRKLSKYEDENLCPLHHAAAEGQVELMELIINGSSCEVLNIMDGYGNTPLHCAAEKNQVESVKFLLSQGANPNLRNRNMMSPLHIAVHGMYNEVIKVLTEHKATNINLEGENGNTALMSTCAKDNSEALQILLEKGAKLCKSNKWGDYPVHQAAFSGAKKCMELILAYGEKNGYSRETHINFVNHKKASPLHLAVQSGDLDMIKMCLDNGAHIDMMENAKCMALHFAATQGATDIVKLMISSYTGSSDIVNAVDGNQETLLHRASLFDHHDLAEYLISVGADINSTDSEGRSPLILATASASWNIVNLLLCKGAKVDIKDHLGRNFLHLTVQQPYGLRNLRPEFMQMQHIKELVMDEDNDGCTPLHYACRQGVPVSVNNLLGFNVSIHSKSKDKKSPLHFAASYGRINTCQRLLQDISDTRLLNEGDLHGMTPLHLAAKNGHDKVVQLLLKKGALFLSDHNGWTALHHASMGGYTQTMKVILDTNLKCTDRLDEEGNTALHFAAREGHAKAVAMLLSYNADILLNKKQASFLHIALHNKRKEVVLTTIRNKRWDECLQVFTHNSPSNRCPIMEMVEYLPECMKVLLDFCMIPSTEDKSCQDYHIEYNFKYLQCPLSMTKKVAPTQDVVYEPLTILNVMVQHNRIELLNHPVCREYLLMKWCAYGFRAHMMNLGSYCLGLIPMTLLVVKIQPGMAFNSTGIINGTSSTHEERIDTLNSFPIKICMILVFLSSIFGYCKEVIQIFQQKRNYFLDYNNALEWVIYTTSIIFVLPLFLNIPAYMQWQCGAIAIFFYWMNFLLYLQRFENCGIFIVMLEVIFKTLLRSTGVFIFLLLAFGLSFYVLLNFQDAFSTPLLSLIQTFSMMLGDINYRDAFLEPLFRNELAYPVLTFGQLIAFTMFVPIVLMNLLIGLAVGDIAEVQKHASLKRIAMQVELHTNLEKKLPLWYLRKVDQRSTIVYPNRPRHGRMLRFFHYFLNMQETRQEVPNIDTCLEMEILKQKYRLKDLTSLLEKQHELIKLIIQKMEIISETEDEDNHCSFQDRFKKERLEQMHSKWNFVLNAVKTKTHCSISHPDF

Row | SMILES | IC50 [µM]
1 | CNCc1ccc(NS(=O)(=O)c2ccsc2)c(-c2ccco2)c1 [IA-30] | < 1
2 | CNCc1ccc(-c2nccs2)c(NS(=O)(=O)c2ccccc2)c1 [IA-51, N-(5-((methylamino)methyl)-2-(thiazol-2-yl)phenyl)benzenesulfonamide] | < 1
3 | CNCc1ccc(-c2cc[nH]n2)c(NS(=O)(=O)c2ccccc2)c1 [IA-55, N-(5-((methylamino)methyl)-2-(1H-pyrazol-3-yl)phenyl)benzenesulfonamide] | < 1
4 | NCc1ccc(NS(=O)(=O)c2ccsc2)c(-c2ccco2)c1 [ID-5] | < 1
